Reference: ChEMBL document CHEMBL3091444, “5-Chlorothiophene-2-carboxylic acid [(S)-2-[2-methyl-3-(2-oxopyrrolidin-1-yl)benzenesulfonylamino]-3-(4-methylpiperazin-1-yl)-3-oxopropyl]amide (SAR107375), a selective and potent orally active dual thrombin and factor Xa inhibitor” (J Med Chem, 2013)

Legend:
[1] = Metabolic stability in Sprague-Dawley rat liver microsomes at 5 uM after 20 mins; type: ADME; details: read-out: Stability
[2] = Metabolic stability in human liver microsomes at 5 uM after 20 mins; type: ADME; details: read-out: Stability
[3] = Metabolic stability in Swiss CD1 mouse liver microsomes at 5 uM after 20 mins; type: ADME, Microsome; details: read-out: Stability
[4] = Permeability of the compound across human Caco2 cells; type: ADME, cell-based; details: Caco-2, read-out: permeability
[5] = Tmax in Sprague-Dawley rat at 10 mg/kg, po; type: ADME, organism-based; design: dose 10 mg/kg, route oral; details: in vivo
[6] = Oral bioavailability in dog at 10 mg/kg; type: ADME, organism-based, Canis lupus familiaris; details: in vivo
[7] = Cmax in dog at 3 mg/kg, iv; type: ADME, organism-based, Canis lupus familiaris; design: dose 3 mg/kg, route intravenous; details: in vivo
[8] = Clearance in dog at 3 mg/kg, iv; type: ADME, organism-based, Canis lupus familiaris; design: dose 3 mg/kg, route intravenous; details: in vivo
[9] = Cmax in Sprague-Dawley rat at 3 mg/kg, iv; type: ADME, organism-based; design: dose 3 mg/kg, route intravenous; details: in vivo
[10] = Cmax in Sprague-Dawley rat at 10 mg/kg, po; type: ADME, organism-based; design: dose 10 mg/kg, route oral; details: in vivo
[11] = Oral bioavailability in Sprague-Dawley rat at 10 mg/kg; type: ADME, organism-based; details: in vivo
[12] = Tmax in dog at 10 mg/kg, po; type: ADME, organism-based, Canis lupus familiaris; design: dose 10 mg/kg, route oral; details: in vivo
[13] = Half life in dog at 3 mg/kg, iv; type: ADME, organism-based, Canis lupus familiaris; design: dose 3 mg/kg, route intravenous; details: in vivo
[14] = Half life in Sprague-Dawley rat at 10 mg/kg, po; type: ADME, organism-based; design: dose 10 mg/kg, route oral; details: in vivo
[15] = AUC in Sprague-Dawley rat at 3 mg/kg, iv; type: ADME, organism-based; design: dose 3 mg/kg, route intravenous; details: plasma
[16] = AUC in dog at 3 mg/kg, iv; type: ADME, organism-based, Canis lupus familiaris; design: dose 3 mg/kg, route intravenous; details: plasma
[17] = Half life in Sprague-Dawley rat at 3 mg/kg, iv; type: ADME, organism-based; design: dose 3 mg/kg, route intravenous; details: in vivo
[18] = Half life in dog at 10 mg/kg, po; type: ADME, organism-based, Canis lupus familiaris; design: dose 10 mg/kg, route oral; details: in vivo
[19] = AUC in Sprague-Dawley rat at 10 mg/kg, po; type: ADME, organism-based; design: dose 10 mg/kg, route oral; details: plasma
[20] = Volume of distribution at steady state in Sprague-Dawley rat at 3 mg/kg, iv; type: ADME, organism-based; design: dose 3 mg/kg, route intravenous; details: in vivo, read-out: Vdss
[21] = AUC in dog at 10 mg/kg, po; type: ADME, organism-based, Canis lupus familiaris; design: dose 10 mg/kg, route oral; details: plasma
[22] = Volume of distribution at steady state in dog at 3 mg/kg, iv; type: ADME, organism-based, Canis lupus familiaris; design: dose 3 mg/kg, route intravenous; details: in vivo, read-out: Vdss
[23] = Clearance in Sprague-Dawley rat at 3 mg/kg, iv; type: ADME, organism-based; design: dose 3 mg/kg, route intravenous; details: in vivo
[24] = Cmax in dog at 10 mg/kg, po; type: ADME, organism-based, Canis lupus familiaris; design: dose 10 mg/kg, route oral; details: in vivo
[25] = system: Liver microsome; test: Drug metabolism in human liver microsomes assessed as oxidation; type: ADME

`Cc1c(N2CCOCC2=O)cccc1S(=O)(=O)N[C@@H](CNC(=O)c1ccc(Cl)s1)C(=O)N1CCN(C)CC1` showed a remaining at 20 min, 5 µM [1] of 0%, a remaining at 20 min, 5 µM [2] of 52% and a remaining at 20 min, 5 µM [3] of 26%.
`Cc1c(N2CCOCC2=O)cccc1S(=O)(=O)N[C@@H](CNC(=O)c1ccc(Cl)s1)C(=O)N1CCOC[C@@H]1C` showed a remaining at 20 min, 5 µM [1] of 58%, a remaining at 20 min, 5 µM [2] of 74% and a remaining at 20 min, 5 µM [3] of 91%.
Compound `CCc1c(N2CCOCC2=O)cccc1S(=O)(=O)N[C@@H](CNC(=O)c1ccc(Cl)s1)C(=O)N1CCC(OC)CC1` has a remaining at 20 min, 5 µM [1] of 99%, a remaining at 20 min, 5 µM [2] of 99% and a remaining at 20 min, 5 µM [3] of 98%.
For `CCc1c(N2CCOCC2=O)cccc1S(=O)(=O)N[C@@H](CNC(=O)c1ccc(Cl)s1)C(=O)N1CCC(O)CC1`, the remaining at 20 min, 5 µM [1] was 51%, the remaining at 20 min, 5 µM [2] was 80% and the remaining at 20 min, 5 µM [3] was 68%.
Work on `O=C(NC[C@H](NS(=O)(=O)c1cccc(N2CCOCC2=O)c1Cl)C(=O)N1CCC(O)CC1)c1ccc(Cl)s1` yielded a remaining at 20 min, 5 µM [1] of 58%, a remaining at 20 min, 5 µM [2] of 38% and a remaining at 20 min, 5 µM [3] of 18%.
Work on `CN1CCN(C(=O)[C@H](CNC(=O)c2ccc(Cl)s2)NS(=O)(=O)c2cccc(N3CCOCC3=O)c2Cl)CC1` yielded a remaining at 20 min, 5 µM [1] of 63%, a remaining at 20 min, 5 µM [2] of 72% and a remaining at 20 min, 5 µM [3] of 69%.
For `CN1CCN(C(=O)[C@H](CNC(=O)c2ccc(Cl)s2)NS(=O)(=O)c2cccc(N3CCCC3=O)c2Cl)CC1`, the remaining at 20 min, 5 µM [1] was 54%, the remaining at 20 min, 5 µM [2] was 59% and the remaining at 20 min, 5 µM [3] was 45%.
`Cc1c(-c2ccccn2)cccc1S(=O)(=O)N[C@@H](CCCc1ccc(N)cn1)C(=O)N1CCC(=C(F)F)CC1` showed a Papp [4] of 9.6 ×10⁻⁶ cm/s.
For `Cc1c(N2CCCC2=O)cccc1S(=O)(=O)N[C@@H](CNC(=O)c1ccc(Cl)s1)C(=O)N1CCN(C)CC1.Cl`, the Tmax [5] was 0.25 h, the remaining at 20 min, 5 µM [1] was 25% and the bioavailability [6] was 47%. For the same compound, the Cmax [7] was 3500 ng/mL, the clearance [8] was 28.3 mL/min/kg and the Cmax [9] was 1300 ng/mL. For the same compound, the remaining at 20 min, 5 µM [2] was 34%, the Cmax [10] was 154 ng/mL and the bioavailability [11] was 21%. It also gave a Tmax [12] of 0.5 h, a half-life [13] of 1.1 h and a half-life [14] of 6.2 h. For the same compound, the remaining at 20 min, 5 µM [3] was 25%, the AUC [15] was 510 ng·h/mL and the AUC [16] was 1800 ng·h/mL. The half-life [17] was 6.6 h, the half-life [18] was 2.4 h and the AUC [19] was 360 ng·h/mL. For the same compound, the Vd [20] was 4.6 L/kg, the AUC [21] was 2600 ng·h/mL and the Vd [22] was 1.5 L/kg. For the same compound, the clearance [23] was 96.7 mL/min/kg and the Cmax [24] was 1530 ng/mL.
In the case of `CCc1c(-c2ccccn2)cccc1S(=O)(=O)N[C@@H](CNC(=O)c1ccc(Cl)s1)C(=O)N1CCOC[C@@H]1C`, the remaining at 20 min, 5 µM [1] is reported as 65%, the remaining at 20 min, 5 µM [2] is reported as 99% and the Drug metabolism [25] is reported as “Active”. The remaining at 20 min, 5 µM [3] was 99%.
Work on `CCc1c(N2CCOCC2=O)cccc1S(=O)(=O)N[C@@H](CNC(=O)c1ccc(Cl)s1)C(=O)N1CCOC[C@@H]1C` yielded a remaining at 20 min, 5 µM [1] of 99%, a remaining at 20 min, 5 µM [2] of 99% and a remaining at 20 min, 5 µM [3] of 99%.
